Data on one compound can be found in ChEMBL document CHEMBL4028875, “Design of Leucine-Rich Repeat Kinase 2 (LRRK2) Inhibitors Using a Crystallographic Surrogate Derived from Checkpoint Kinase 1 (CHK1)” (J Med Chem, 2017).

Usually inhibition stands for the relative decrease from the control value, in per cent.

Test [1] deals with T1, Tyrosine-protein kinase JAK3 (Homo sapiens) (UniProt P52333).
T1 sequence (whole entry): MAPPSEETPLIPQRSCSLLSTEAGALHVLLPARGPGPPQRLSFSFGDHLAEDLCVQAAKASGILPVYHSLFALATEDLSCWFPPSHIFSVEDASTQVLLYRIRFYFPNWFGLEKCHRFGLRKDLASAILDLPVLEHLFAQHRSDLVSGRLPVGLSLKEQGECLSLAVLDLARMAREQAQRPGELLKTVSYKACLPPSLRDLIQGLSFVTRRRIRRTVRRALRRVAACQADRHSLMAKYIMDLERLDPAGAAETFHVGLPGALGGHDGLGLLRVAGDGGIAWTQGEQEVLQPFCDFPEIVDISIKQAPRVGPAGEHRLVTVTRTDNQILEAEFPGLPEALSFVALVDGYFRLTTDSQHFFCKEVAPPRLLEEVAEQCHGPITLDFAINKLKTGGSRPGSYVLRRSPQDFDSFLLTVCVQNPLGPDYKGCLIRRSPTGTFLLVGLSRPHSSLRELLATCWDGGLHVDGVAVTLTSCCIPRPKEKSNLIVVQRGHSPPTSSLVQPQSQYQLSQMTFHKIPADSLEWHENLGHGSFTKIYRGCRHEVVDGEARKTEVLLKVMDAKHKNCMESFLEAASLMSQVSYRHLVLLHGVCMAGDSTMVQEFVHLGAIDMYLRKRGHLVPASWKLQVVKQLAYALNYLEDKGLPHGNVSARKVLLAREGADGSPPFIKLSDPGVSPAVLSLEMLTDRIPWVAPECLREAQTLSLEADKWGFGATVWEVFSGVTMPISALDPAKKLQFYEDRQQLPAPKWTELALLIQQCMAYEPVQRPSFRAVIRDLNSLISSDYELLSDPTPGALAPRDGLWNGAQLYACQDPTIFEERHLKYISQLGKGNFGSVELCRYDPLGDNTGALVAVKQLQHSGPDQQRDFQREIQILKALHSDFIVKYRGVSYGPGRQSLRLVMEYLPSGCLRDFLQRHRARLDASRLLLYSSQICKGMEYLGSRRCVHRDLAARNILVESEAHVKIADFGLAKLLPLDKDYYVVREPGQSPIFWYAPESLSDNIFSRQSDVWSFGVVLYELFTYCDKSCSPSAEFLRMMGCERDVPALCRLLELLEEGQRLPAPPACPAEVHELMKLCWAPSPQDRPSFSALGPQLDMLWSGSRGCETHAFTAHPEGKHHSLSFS
Briefly: Inhibition of recombinant human JAK3 JH1 catalytic domain (781 to 1124 residues) expressed in mammalian expression system at 1 uM by KINOMEScan assay relative to control.

In test [2] the target is T2, Serine/threonine-protein kinase TAO1 (Homo sapiens) (UniProt Q7L7X3).
T2 sequence (whole entry): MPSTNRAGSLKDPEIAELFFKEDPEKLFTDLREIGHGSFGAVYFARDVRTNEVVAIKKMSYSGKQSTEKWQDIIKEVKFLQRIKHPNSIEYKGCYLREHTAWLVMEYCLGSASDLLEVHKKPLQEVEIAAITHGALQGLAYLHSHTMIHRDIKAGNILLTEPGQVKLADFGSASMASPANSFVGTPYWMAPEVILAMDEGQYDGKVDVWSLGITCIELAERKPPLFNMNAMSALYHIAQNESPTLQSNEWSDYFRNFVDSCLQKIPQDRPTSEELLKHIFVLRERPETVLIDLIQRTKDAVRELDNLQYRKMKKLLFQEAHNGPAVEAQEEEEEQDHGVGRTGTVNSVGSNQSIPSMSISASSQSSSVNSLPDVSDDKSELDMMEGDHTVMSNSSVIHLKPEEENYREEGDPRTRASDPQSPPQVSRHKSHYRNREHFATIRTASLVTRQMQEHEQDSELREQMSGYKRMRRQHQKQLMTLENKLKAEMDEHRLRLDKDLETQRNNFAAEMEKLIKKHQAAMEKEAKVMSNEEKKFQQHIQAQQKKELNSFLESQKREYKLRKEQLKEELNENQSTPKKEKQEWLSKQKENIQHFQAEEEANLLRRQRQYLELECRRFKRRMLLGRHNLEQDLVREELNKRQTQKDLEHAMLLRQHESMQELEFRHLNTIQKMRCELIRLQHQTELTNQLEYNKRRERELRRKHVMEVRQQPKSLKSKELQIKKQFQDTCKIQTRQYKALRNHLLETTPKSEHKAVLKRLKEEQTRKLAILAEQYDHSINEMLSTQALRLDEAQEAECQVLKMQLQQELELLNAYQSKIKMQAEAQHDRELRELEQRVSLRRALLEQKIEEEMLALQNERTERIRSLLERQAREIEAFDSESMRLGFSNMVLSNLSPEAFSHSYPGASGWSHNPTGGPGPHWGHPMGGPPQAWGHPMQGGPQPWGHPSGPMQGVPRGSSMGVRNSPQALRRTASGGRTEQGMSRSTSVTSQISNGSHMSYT
The experiment in a line: Inhibition of TAO1 in human PBMC at 1 uM.

Test [3] addresses T3, Serine/threonine-protein kinase D1 (Homo sapiens) (UniProt Q15139).
T3 sequence (whole entry): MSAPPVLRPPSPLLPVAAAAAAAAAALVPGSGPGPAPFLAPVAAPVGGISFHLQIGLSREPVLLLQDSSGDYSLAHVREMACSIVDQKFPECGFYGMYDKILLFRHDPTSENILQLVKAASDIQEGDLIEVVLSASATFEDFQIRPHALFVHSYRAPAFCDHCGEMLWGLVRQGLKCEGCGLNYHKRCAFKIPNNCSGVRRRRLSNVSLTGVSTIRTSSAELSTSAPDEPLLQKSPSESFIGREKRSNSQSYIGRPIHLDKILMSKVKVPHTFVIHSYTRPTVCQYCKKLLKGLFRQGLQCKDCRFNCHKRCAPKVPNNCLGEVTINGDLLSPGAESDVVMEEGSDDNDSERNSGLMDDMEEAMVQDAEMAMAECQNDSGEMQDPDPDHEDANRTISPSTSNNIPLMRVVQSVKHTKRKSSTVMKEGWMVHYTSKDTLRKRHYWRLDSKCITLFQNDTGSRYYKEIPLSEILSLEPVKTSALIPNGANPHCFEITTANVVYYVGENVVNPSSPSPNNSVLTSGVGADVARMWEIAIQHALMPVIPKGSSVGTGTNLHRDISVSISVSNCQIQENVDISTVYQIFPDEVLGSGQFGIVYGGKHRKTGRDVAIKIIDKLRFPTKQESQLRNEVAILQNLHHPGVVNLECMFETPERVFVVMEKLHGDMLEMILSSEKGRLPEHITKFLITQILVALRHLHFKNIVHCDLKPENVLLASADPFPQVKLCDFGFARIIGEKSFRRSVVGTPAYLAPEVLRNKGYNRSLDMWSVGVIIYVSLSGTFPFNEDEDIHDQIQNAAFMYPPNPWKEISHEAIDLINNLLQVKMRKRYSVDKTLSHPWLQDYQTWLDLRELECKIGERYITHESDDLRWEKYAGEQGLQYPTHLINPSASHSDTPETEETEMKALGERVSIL
Briefly: Inhibition of PKD1 in human PBMC at 1 uM.

Take `Cc1cccc(-c2cc(N)nc3[nH]cc(C#N)c23)c1`: the figures for the inhibition in test [1], in test [2] and in test [3] were > 95%, > 35% and > 35%, respectively.
